Assay results reported in US20200129476A1, “PARP Inhibitor in Combination with a Glucocorticoid and/or Ascorbic Acid and/or a Protein Growth Factor for the Treatment of Impaired Wound Healing” (AKRIBES BIOMEDICAL GMBH, priority 2017, published 2020).
“Also recorded” adds a separate entry of the source.

Key:
[1] = tested on: alpha-smooth muscle actin (α-SMA); experiment: Immunolocalization of alpha-smooth muscle actin in 2D fibroblast culture (myofibroblast differentiation); assay type: cell-based, human
Method: Primary human dermal fibroblasts (HDF) were purchased from CELLnTEC, Bern. They were routinely grown in Dulbecco's modified Eagle's medium (DMEM) containing 10% FCS, 2 mM glutamine, and 100 U/ml penicillin/100 μg/ml streptomycin. Media, antibiotics, and glutamine were bought from Lonza. The cells were used at passage 5-15. Cells were trypsinized and seeded at 5000 cells/well in 200 μl into the inner wells of 96-well plates. The outer wells were loaded with sterile water. […] For control samples, 200p1 medium was added instead of specific stimuli. Alternatively, the cells were seeded into 384-well plates at 2500 cells/well directly together with test compounds or growth factors and WE or medium in a total volume of […].
After fixation with paraformaldehyde, the cells were incubated for 1 hour at room temperature with a monoclonal mouse-anti-human antibody against alpha-smooth muscle actin (α-SMA) from e-Bioscience, washed 3 times with PBS and developed with an Alexa Fluor-labelled donkey-anti-mouse IgG (Molecular Probes). The cells were washed 3 times with PBS and examined in a Zeiss ZEISS Observer.Z1 microscope, using the software AxioVision 48.

[2] = tested on: primary human dermal fibroblasts (HDF); experiment: Fibroblast-derived matrix (FDM) formation assay (3D), with or without wound exudate; assay type: cell-based
Method: HDF cells were seeded at 5000 cells/well on day −3 into 96-well tissue culture plates (1250 cells/well for 384-well plates), which had been pre-coated for 1 hour at 37° C. with 0.2% gelatin solution (Sigma). When the cells reached confluence (=day 0), a matrix promoting supplement (vitamin C: 2-phospho-L-ascorbic acid trisodium salt, 100 μg/ml; Sigma) was added together with test samples containing PDGF-BB, TGF-ß1 or graded concentrations of compounds −/+WE as described for the HDF proliferation assay. After 4 days, medium was replaced by fresh vitamin C- and stimulus- as well as compound-containing medium, maintaining the conditions initiated on day 0. TGF-ß1 and PDGF-BB were included as positive controls to promote FDM formation and cell growth, respectively. After a total incubation time of 8 days, FDM production was measured in fixed cultures via SRB staining and evaluated as described above. In some cases, the experiment was stopped and evaluated already on day 4.
Low molecular weight compounds (see list in Table 1) were dissolved in DMSO (Bioreagent for cell culture, Sigma) at 10 mM or 100 mM and diluted at least 1:1000 in medium for cellular assays (final DMSO concentration ≤0.1%). Compounds were typically tested in half-logarithmic dilution series (1:3.33), starting at 10 μM or 100 μM as the highest compound concentration.
(§1) Cells were incubated with compounds for 72 hours in proliferation assays and up to 8 days for FDM assay (refreshed after 4 days). When compounds were tested for their effect on WE stimulation, the incubation of cells with compounds was started and ended simultaneously with WE-incubation.

[3] = tested on: primary human dermal fibroblasts (HDF); experiment: Primary human dermal fibroblast (HDF) proliferation assay (2D), with or without wound exudate; assay type: cell-based; conditions: for HDF proliferation, PARP inhibitor alone: talazoparib 1 μM
Method: Primary human dermal fibroblasts (HDF) were purchased from CELLnTEC, Bern. They were routinely grown in Dulbecco's modified Eagle's medium (DMEM) containing 10% FCS, 2 mM glutamine, and 100 U/ml penicillin/100 μg/ml streptomycin. Media, antibiotics, and glutamine were bought from Lonza. The cells were used at passage 5-15. Cells were trypsinized and seeded at 5000 cells/well in 200 μl into the inner wells of 96-well plates. The outer wells were loaded with sterile water. The cells were allowed to adhere overnight and then incubated for 72 hours at 37° C. under the following conditions: graded compound concentrations or 20 ng/ml PDGF-BB (Tonbo Biosciences) in the absence or presence of different dilutions of sterile-filtered WE in medium. For control samples, 200p1 medium was added instead of specific stimuli. Alternatively, the cells were seeded into 384-well plates at 2500 cells/well directly together with test compounds or growth factors and WE or medium in a total volume of […].
At the end of the 72-hour incubation period, supernatants were removed for the determination of IL-1ß, and the cells were fixed with 4% paraformaldehyde (Morphisto) for 15 minutes at room temperature and washed 3 times with PBS. A control plate was fixed after the overnight adherence of the cells (day 1) to determine the starting cell number.
Total cellular protein was determined as a measure of cell number by staining the fixed cells with sulforhodamine B (SRB, Sigma). A 0.4% SRB solution in 1% acetic acid was added to the wells for 30 minutes. The wells were then washed with 1 acetic acid until the wash solution remained colorless. After drying, the dye was eluted with 10 mM Tris.HCl, pH8.5, and absorbance was measured either at 550 or 492 nm for lower and higher cell densities, respectively. The average absorbance of the sample representing the day 1 starting cell number (for 96-well plates) was subtracted from the absorbance values of the WE-treated cells.
All experiments were carried out in triplicate for each sample and concentration, and means±standard deviation (SD) were used for the evaluation of the experiment. Results are expressed as percentage of control values for unstimulated cells.
Low molecular weight compounds (see list in Table 1) were dissolved in DMSO (Bioreagent for cell culture, Sigma) at 10 mM or 100 mM and diluted at least 1:1000 in medium for cellular assays (final DMSO concentration ≤0.1%).
as §1

SMILES: C[C@]1(c2nc3c(C(N)=O)cccc3[nH]2)CCCN1 [veliparib, 2-((2R)-2-methylpyrrolidin-2-yl)-1H-benzimidazole-4-carboxamide]
- staining for α-SMA ([1]; absence of WE, TGF-ß 20 ng/ml, veliparib 10 μM): has no effect; also recorded: had no effect
- staining for α-SMA, veliparib in combination with TGF-ß ([1]; presence of WE #78, veliparib 10 μM + TGF-ß 20 ng/ml): more strongly stained cells than veliparib alone
- FDM formation, veliparib combined with glucocorticoid ([2]; WE #49, non-diabetic, non-immunosuppressed patient (FIG. 8)): could be enhanced with glucocorticoids in another non-diabetic and non-immunosuppressed patient, but not vice versa; also recorded: could be enhanced with glucocorticoids, but not vice versa
- FDM formation, veliparib combined with glucocorticoid ([2]; WE #78, patient with diabetes, immunosuppression after kidney transplantation (FIG. 7)): enhances the effect of glucocorticoids
- FDM formation, combination of veliparib with dexamethasone versus each alone ([2]; WE present, microscopy (FIG. 6)): even superior to each substance alone
- fibroblast-derived matrix (FDM) formation ([2]; presence of WE #78 (FIG. 9)): strong positive effect
- fibroblast-derived matrix (FDM/ECM) formation ([2]; presence of wound exudate, WE not specified (FIG. 6: microscopy)): “cleaned up” WE-induced fibroblast matrix inhibition
- cell proliferation under wound exudate-induced inhibition ([3]; FIG. 22, WE #43 and #78 used with veliparib): enhanced cell proliferation
- HDF proliferation, PARP inhibitor plus PDGF ([3]; PARP inhibitor dose series + PDGF 20 ng/ml, WE #78 (FIG. 18)): even further enhanced by the addition of PDGF
- effect on fibroblast proliferation compared across patients ([3]; WE from patients #49, #43, #78, #27): most prominent in the two patients with diabetes
- reproducibility of effect on fibroblast proliferation ([3]; WE samples #77 and #78 of one patient (day 1 and day 8)): reproducible in different samples of the same patient
- fibroblast (HDF) proliferation ([3]; presence of WE #43): strongly beneficial effects
- fibroblast (HDF) proliferation ([3]; presence of WE #78 (diabetic patient)): completely reversed inhibition of wound exudate (WE)-induced fibroblast proliferation; also recorded: dose-dependent increase of HDF proliferation
- fibroblast (HDF) proliferation ([3]; presence of WE #78 (diabetic patient), listed as Veliparib): completely reversed inhibition of wound exudate (WE)-induced fibroblast proliferation; also recorded: strongly beneficial effects
- fibroblast (HDF) proliferation ([3]; presence of wound exudate (WE) of patients, several or unspecified WE): could be confirmed in a number of further wound exudate samples from other patients
- HDF proliferation, PARP inhibitor plus PDGF ([3]; veliparib 10 μM, talazoparib 1 μM + PDGF 20 ng/ml, WE #78 (FIG. 17B)): additively or synergistically enhanced by PDGF
- HDF proliferation, PARP inhibitor alone ([3]; veliparib 10 μM, WE #78 (FIG. 17B)): induce proliferation
- HDF proliferation, PARP inhibitor alone ([3]; veliparib 10 μM, absence of WE (FIG. 17A)): no or an inhibitory effect on fibroblasts on their own
- HDF proliferation, PARP inhibitor alone ([3]; veliparib 10 μM, absence of WE (FIG. 17A), listed as Veliparib): no or even an inhibitory effect on fibroblasts on their own
